Results from US8242166B2, “C(10) ethyl ester and C(10) cyclopropyl ester substituted taxanes” (Florida State University Research Foundation, Inc., priority 2008, dated 2012).
“And” between values parts separate entries of the source, which are not always exact repeats. Equal entries are not always repeated. Where two headings read alike, the source gives them in different places.

Tests used:
[1] = system: PANC-1; assay: MTT cytotoxicity (IC50), PANC-1; format: cell-based; conditions: Homo sapiens, 72 h, read-out: IN Vitro IC50 (nm) Panc
Method: (§1) Compound 17932 was tested in four of these cell lines, while the remaining compounds were tested in all of these cell lines. All cell lines were maintained in RPMI-1640 tissue culture medium (TCM, supplemented with antibiotics and 10% fetal bovine serum) and cultured at 37° C. in humidified air containing 5% CO2. To assess the antiproliferative effects of the test compounds, 172 μL of tumor cell suspension (1.45×10^4 cells/ml) were added to each well of a 96-well plate and incubated for 24 h at 37° C. in 5% CO2 in air to allow cells to adhere. Seven 2-fold drug dilutions in TCM/DMSO were performed in triplicate in separate 96-well plates and 28 μL was transferred to the wells containing tumor cells (200 μL final volume/0.1% DMSO). Plates were incubated for 72 h and cell viability was determined by adding 50 μL of warm TCM containing 5 mg/mL MTT (3-[4,5-dimethylthiazol-2-yl]-2,5-diphenyltetrazolium bromide) to each well and incubating for 1 h at 37° C. Plates were processed and the absorbances of the resulting solutions were measured by a plate reader at 570 nm. […] (GraphPad Prism version 4.00 for Windows). Studies were conducted by Taxolog, Inc., Tallahassee, Fla.

[2] = system: HT29; assay: MTT cytotoxicity (IC50), HT29; format: cell-based; conditions: Homo sapiens, HT-29, 72 h, read-out: IN Vitro IC50 (nm) HT29
Method: as §1

[3] = system: 786-0; assay: MTT cytotoxicity (IC50), 786-0; format: cell-based; conditions: Homo sapiens
Method: as §1

[4] = system: A375; assay: MTT cytotoxicity (IC50), A375; format: cell-based; conditions: Homo sapiens, A-375
Method: as §1

[5] = system: A549; assay: MTT cytotoxicity (IC50), A549; format: cell-based; conditions: Homo sapiens, 72 h, read-out: IN Vitro IC50 (nm) A549
Method: as §1

[6] = system: MALME-3; assay: MTT cytotoxicity (IC50), MALME-3; format: cell-based; conditions: Homo sapiens, 72 h, read-out: IN Vitro IC50 (nm) Malme3
Method: as §1

[7] = system: OVCAR5; assay: MTT cytotoxicity (IC50), OVCAR5; format: cell-based; conditions: Homo sapiens, OVCAR-5, 72 h, read-out: IN Vitro IC50 (nm) OVCAR5
Method: as §1

[8] = system: OVCAR4; assay: MTT cytotoxicity (IC50), OVCAR4; format: cell-based; conditions: Homo sapiens, OVCAR-4, 72 h, read-out: IN Vitro IC50 (nm) OVCAR4
Method: as §1

[9] = system: HOP-18; assay: MTT cytotoxicity (IC50), HOP-18; format: cell-based; conditions: Homo sapiens, 72 h, read-out: IN Vitro IC50 (nm) HOP18
Method: as §1

[10] = system: SK-MEL-28; assay: MTT cytotoxicity (IC50), SK-MEL-28; format: cell-based; conditions: Homo sapiens, 72 h, read-out: IN Vitro IC50 (nm) ske-mel28
Method: as §1

[11] = system: SNB-19; assay: MTT cytotoxicity (IC50), SNB-19; format: cell-based; conditions: Homo sapiens, 72 h, read-out: IN Vitro IC50 (nm) SNB19
Method: as §1

[12] = system: BxPC-3 cancer cell line; assay: MTT cytotoxicity (IC50), BxPC-3 (Oncodesign); format: cell-based; conditions: Homo sapiens
Method: BxPC-3 cancer cell line (Source ATCC) and culture medium were purchased and provided by Oncodesign (France).
Tumor cells (5,000 cells per well) were plated in 96-well flat-bottom microtitration plates (Ref 167008, Batch 083310, Nunc, Dutscher, Brumath, France) and incubated at 37° C. for 24 hours before treatment in 100 μl of drug-free RPMI 1640 medium supplemented with 10% FBS. Tumor cell lines were incubated for 72 hours with 10 concentrations of both test substances and TXT (40 to 0.07 nM using ½ step dilutions). Experiments were repeated three times, each assay being issued from quadruplicate. Control cells were treated with the vehicle alone. At the end of treatments, the cytotoxic activity was evaluated by a MTT assay. These studies were conducted at Oncodesign, France.

[13] = system: human BxPC-3 human pancreatic xenograft; format: in vivo
Method: Method: Twenty four (24) hours after a whole body irradiation with a γ-source (7.0 Gy, Co^60, INRA, Dijon, France) 20×10^6 BxPC-3 cells in 200 μl of RPMI 1640 culture medium were subcutaneously injected in the right flank of 8 female Nude rats to generate tumor material. When the tumor size reaches approximately 1,000 mm^3, the tumors were surgically excised for implantation into recipient Nude female rats. Twenty four (24) hours after a whole body irradiation (7.0 Gy, Co^60, INRA, Dijon, France), fresh BxPC-3 tumor fragments were sc implanted in the right flank of 52 Nude female rats (1 fragment/rat) at D0 using surgical pliers and skin was stitched. The antitumor activity study was started at D21 when the mean tumor volume has reached 321.6±131.2 mm^3. Before the start of treatments, 42 tumor bearing rats out of 52 grafted were randomized into 7 groups of 6 animals.
[…]. At 7 mg/kg/inj, only two treatments were performed at D21 and D42 due to severe body weight loss.

[14] = system: MX1 human tumor xenografts

CCC(=O)O[C@H]1C(=O)[C@@]2(C)C([C@H](OC(=O)c3ccccc3)[C@]3(O)C[C@H](OC(=O)[C@H](O)[C@@H](NC(=O)OC4CCC4)c4cccs4)C(C)=C1C3(C)C)[C@]1(OC(C)=O)CO[C@@H]1C[C@@H]2O (some centres unmarked) [Compound 19244]
IC50 [1]: 1.2 nM | IC50 [2]: 0.6 nM | IC50 ([3]; MTT, 72 h, read-out: IN Vitro IC50 (nm) 786-0): 0.9 nM | IC50 ([3]; Resistance MDR1+, read-out: 786-0 Renal (Table 4, quantity not named; IC50 values as Table 2)): 0.9 nM | IC50 ([4]; MTT, 72 h, read-out: IN Vitro IC50 (nm) A375): 0.6 nM | IC50 ([4]; Resistance MRP9, read-out: A375 Melanoma (Table 4, quantity not named; IC50 values as Table 2)): 0.5 nM | IC50 [5]: 0.5 nM | IC50 [6]: 1.1 nM | IC50 [7]: 0.6 nM | IC50 [8]: 2.7 nM | IC50 [9]: 1.5 nM | IC50 [10]: 2 nM | IC50 [11]: 0.9 nM | IC50 ([12]; BXPC-3, 72 h, Exp 1, MTT, 72 hours, read-out: IC50 (nM) BxPC-3): 0.53 nM | IC50 ([12]; BXPC-3, 72 h, Exp 2, MTT, 72 hours, read-out: IC50 (nM) BxPC-3): 0.66 nM | IC50 ([12]; BXPC-3, 72 h, Exp 3, MTT, 72 hours, read-out: IC50 (nM) BxPC-3): 1.03 nM | IC50 ([12]; BXPC-3, mean of 3 experiments, read-out: IC50 Mean ± SD (nM) BxPC-3): 0.74 ± 0.26 nM | tolerability of repeated IV treatments ([13]; 5 mg/kg/inj): well tolerated | mean doubling time (DT) of tumors ([13]; 5 mg/kg/inj IV, repeated): 19.3 ± 6.5 days | time to reach volume (T to V) of 1,000 mm^3 ([13]; 5 mg/kg/inj IV, repeated): 46.0 ± 11.6 days | MBWC D21-D26 ([13]; 5 mg/kg/inj IV, after the first injection): −15.9±5.6% | optimal T/C % value ([13]; 5 mg/kg/inj IV, at D53): 27.7% | tolerability of repeated IV treatments ([13]; 7 mg/kg/inj): not tolerated | rats out of six alive at the end of the study ([13]; 7 mg/kg/inj IV): two | MBWC D21-D26 ([13]; 7 mg/kg/inj IV, after the first treatment): −20.1±5.7% | antitumor activity ([13]; repeated IV injections at 5 and 7 mg/kg/inj): marked antitumor activity | % TGD ([14]; 7.5 mg/kg iv qd × 1): −3% and −2.64% | Median TTE ([14]; 7.5 mg/kg iv qd × 1): 16.72 days | T-C ([14]; 7.5 mg/kg iv qd × 1): -0.45 days | activity (logrank test) ([14]; 7.5 mg/kg iv qd × 1): nonsignificant activities | CR (complete regression) ([14]; 7.5 mg/kg iv qd × 1, n=5): 0 | NTR (non-treatment-related death) ([14]; 7.5 mg/kg iv qd × 1, n=5): 0 | PR (partial regression) ([14]; 7.5 mg/kg iv qd × 1, n=5): 0 | TFS (tumor-free survivor) ([14]; 7.5 mg/kg iv qd × 1, n=5): 0 | TR (treatment-related death) ([14]; 7.5 mg/kg iv qd × 1, n=5): 0 | % TGD ([14]; 15 mg/kg iv qd × 1): 83% and 83.42% | Median TTE ([14]; 15 mg/kg iv qd × 1): 31.49 days | T-C ([14]; 15 mg/kg iv qd × 1): 14.32 days | activity (logrank test) ([14]; 15 mg/kg iv qd × 1): nonsignificant activities | CR (complete regression) ([14]; 15 mg/kg iv qd × 1, n=5): 0 | NTR (non-treatment-related death) ([14]; 15 mg/kg iv qd × 1, n=5): 0 | PR (partial regression) ([14]; 15 mg/kg iv qd × 1, n=5): 0 | TFS (tumor-free survivor) ([14]; 15 mg/kg iv qd × 1, n=5): 0 | TR (treatment-related death) ([14]; 15 mg/kg iv qd × 1, n=5): 0 | % TGD ([14]; 30 mg/kg iv qd × 1): 235% and 235.44% | MTV (n), Day 60 ([14]; 30 mg/kg iv qd × 1): 0.00 (2) mm^3 | Median TTE ([14]; 30 mg/kg iv qd × 1): 57.59 days | T-C ([14]; 30 mg/kg iv qd × 1): 40.42 days | activity (logrank test) ([14]; 30 mg/kg iv qd × 1): significant activity | CR (complete regression) ([14]; 30 mg/kg iv qd × 1, n=5): 4 | NTR (non-treatment-related death) ([14]; 30 mg/kg iv qd × 1, n=5): 0 | PR (partial regression) ([14]; 30 mg/kg iv qd × 1, n=5): 1 | TFS (tumor-free survivor) ([14]; 30 mg/kg iv qd × 1, n=5): 2 | TR (treatment-related death) ([14]; 30 mg/kg iv qd × 1, n=5): 0 | mice survived to D60 ([14]; 30 mg/kg iv qd × 1, n=5): two | transient CRs ([14]; 30 mg/kg iv qd × 1, n=5): 2
